Test results taken from patent publication US10537558B2 (Bantam Pharmaceutical, LLC, priority 2015, dated 2020).

Test system: BJAB cells
Assay: BJAB cell proliferation (Cell Titer Glo)
Assay type: cell-based
Details: Homo sapiens, read-out: EC50
Summary of the method: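 BJAB cells exposed to serially diluted compounds (0.1% DMSO final) for about 72 h at 37 °C. Proliferation read by Cell Titer Glo luminescence as percent of untreated controls; EC50 from non-linear regression of dose-response data.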

Row | SMILES | EC50
1 | Cc1nn(-c2nc(-c3ccc(Cl)c(Cl)c3)c(SC(C)C)s2)c(C(=O)O)c1Cc1ccccc1NS(C)(=O)=O [Compound 121, 1-(4-(3,4-dichlorophenyl)-5-(isopropylthio)thiazol-2-yl)-3-methyl-4-(2-(methylsulfonamido)benzyl)-1H-pyrazole-5-carboxylic acid] | > 50 µM
2 | Cc1nn(-c2nc(-c3ccc(Cl)c(Cl)c3)c(SC(C)C)s2)c(C(=O)O)c1Cc1ccccc1NS(=O)(=O)N(C)C [Compound 122, 1-(4-(3,4-dichlorophenyl)-5-(isopropylthio)thiazol-2-yl)-4-(2-(N,N-dimethylsulfamoylamino)benzyl)-3-methyl-1H-pyrazole-5-carboxylic acid] | 10 to 25 µM
3 | Cc1nn(-c2nc(-c3ccc(Cl)c(Cl)c3)c(SC(C)C)s2)c(C(=O)O)c1-c1ccc(N)cc1 [Compound 123, 4-(4-aminophenyl)-1-(4-(3,4-dichlorophenyl)-5-(isopropylthio)thiazol-2-yl)-3-methyl-1H-pyrazole-5-carboxylic acid] | 25 to 50 µM
4 | Cc1nn(-c2nc(-c3ccc(Cl)c(Cl)c3)c(SC(C)C)s2)c(C(=O)O)c1-c1ccc(NS(C)(=O)=O)cc1 [Compound 124, 1-(4-(3,4-dichlorophenyl)-5-(isopropylthio)thiazol-2-yl)-3-methyl-4-(4-(methylsulfonamido)phenyl)-1H-pyrazole-5-carboxylic acid] | > 50 µM
5 | Cc1nn(-c2nc(-c3ccc(Cl)c(Cl)c3)c(SC(C)C)s2)c(C(=O)O)c1-c1cccc(NS(C)(=O)=O)c1 [Compound 125, 1-(4-(3,4-dichlorophenyl)-5-(isopropylthio)thiazol-2-yl)-3-methyl-4-(3-(methylsulfonamido)phenyl)-1H-pyrazole-5-carboxylic acid] | > 50 µM
6 | COCCn1cc(-c2c(C)nn(-c3nc(-c4ccc(Cl)c(Cl)c4)c(SC(C)C)s3)c2C(=O)O)cn1 [Compound 126, 2-(4-(3,4-dichlorophenyl)-5-(isopropylthio)thiazol-2-yl)-2′-(2-methoxyethyl)-5-methyl-4,4′-bi(2H-pyrazole)-3-carboxylic acid] | 10 to 25 µM
7 | Cc1nn(-c2nc(-c3ccc(Cl)c(Cl)c3)c(SC(C)C)s2)c(C(=O)O)c1-c1cccc2cc[nH]c12 [Compound 127, 1-(4-(3,4-dichlorophenyl)-5-(isopropylthio)thiazol-2-yl)-4-(1H-indol-7-yl)-3-methyl-1H-pyrazole-5-carboxylic acid] | 5 to 10 µM
8 | Cc1nn(-c2nc(-c3ccc(Cl)c(Cl)c3)c(SC(C)C)s2)cc1-c1cccc2cc[nH]c12 [Compound 128, 2-(4-(1H-indol-7-yl)-3-methyl-1H-pyrazol-1-yl)-4-(3,4-dichlorophenyl)-5-(isopropylthio)thiazole] | 10 to 25 µM
9 | CCn1cc(-c2c(C)nn(-c3nc(-c4ccc(Cl)c(Cl)c4)c(SC(C)C)s3)c2C(=O)O)cn1 [Compound 129, 2-(4-(3,4-dichlorophenyl)-5-(isopropylthio)thiazol-2-yl)-2′-ethyl-5-methyl-4,4′-bi(2H-pyrazole)-3-carboxylic Acid] | 5 to 10 µM
10 | COCCNC(=O)c1c(-c2cccc(C)c2)c(C)nn1-c1nc(-c2ccc(Cl)c(Cl)c2)c(SC(C)C)s1 [Compound 130, 1-(4-(3,4-dichlorophenyl)-5-(isopropylthio)thiazol-2-yl)-N-(2-methoxyethyl)-3-methyl-4-m-tolyl-1H-pyrazole-5-carboxamide] | > 50 µM
11 | Cc1ccccc1-c1c(C)nn(-c2nc(-c3ccc(Cl)c(Cl)c3)c(SC(C)C)s2)c1C(=O)N1CCC(CN)CC1 [Compound 131, (4-(aminomethyl)piperidin-1-yl)(1-(4-(3,4-dichlorophenyl)-5-(isopropylthio)thiazol-2-yl)-3-methyl-4-o-tolyl-1H-pyrazol-5-yl)methanone] | 1 to 5 µM
12 | COc1cncc(-c2c(C)nn(-c3nc(-c4ccc(Cl)c(Cl)c4)c(SC(C)C)s3)c2C(=O)O)c1 [Compound 132, 1-(4-(3,4-dichlorophenyl)-5-(isopropylthio)thiazol-2-yl)-4-(5-methoxypyridin-3-yl)-3-methyl-1H-pyrazole-5-carboxylic acid] | 10 to 25 µM
13 | Cc1nn(-c2nc(-c3ccc(Cl)c(Cl)c3)c(SC(C)C)s2)c(C(=O)O)c1-c1cnn(CC(C)C)c1 [Compound 133, 2-(4-(3,4-dichlorophenyl)-5-(isopropylthio)thiazol-2-yl)-2′-isobutyl-5-methyl-4,4′-bi(2H-pyrazole)-3-carboxylic acid] | 10 to 25 µM
14 | CNc1cc(-c2c(C)nn(-c3nc(-c4ccc(Cl)c(Cl)c4)c(SC(C)C)s3)c2C(=O)O)ccn1 [Compound 134, 1-(4-(3,4-dichlorophenyl)-5-(isopropylthio)thiazol-2-yl)-3-methyl-4-(2-(methylamino)pyridin-4-yl)-1H-pyrazole-5-carboxylic acid] | 10 to 25 µM
15 | Cc1nn(-c2nc(-c3ccc(Cl)c(Cl)c3)c(SC(C)C)s2)c(C(=O)O)c1-c1cnn(C(=O)N(C)C)c1 [Compound 135, 1-(4-(3,4-dichlorophenyl)-5-(isopropylthio)thiazol-2-yl)-1′-(dimethylcarbamoyl)-3-methyl-1H,1′H-[4,4′-bipyrazole]-5-carboxylic acid] | 25 to 50 µM
16 | Cc1nn(-c2nc(-c3ccc(Cl)c(Cl)c3)c(SC(C)C)s2)c(C(=O)N2CCC(CN)CC2)c1-c1cc(C(F)(F)F)cc(C(F)(F)F)c1 [Compound 136, (4-(aminomethyl)piperidin-1-yl)(4-(3,5-bis(trifluoromethyl)phenyl)-1-(4-(3,4-dichlorophenyl)-5-(isopropylthio)thiazol-2-yl)-3-methyl-1H-pyrazol-5-yl)methanone] | 1 to 5 µM
17 | Cc1nn(-c2nc(-c3ccc(Cl)c(Cl)c3)c(SC(C)C)s2)c(C(=O)N(C)CCN)c1-c1cc(C(F)(F)F)cc(C(F)(F)F)c1 [Compound 137, N-(2-aminoethyl)-4-(3,5-bis(trifluoromethyl)phenyl)-1-(4-(3,4-dichlorophenyl)-5-(isopropylthio)thiazol-2-yl)-N,3-dimethyl-1H-pyrazole-5-carboxamide] | 1 to 5 µM
18 | Cc1nn(-c2nc(-c3ccc(Cl)c(Cl)c3)c(SC(C)C)s2)c(C(=O)N2CC(N)C2)c1-c1cc(C(F)(F)F)cc(C(F)(F)F)c1 [Compound 138, (3-aminoazetidin-1-yl)(4-(3,5-bis(trifluoromethyl)phenyl)-1-(4-(3,4-dichlorophenyl)-5-(isopropylthio)thiazol-2-yl)-3-methyl-1H-pyrazol-5-yl)methanone] | 10 to 25 µM
19 | Cc1nn(-c2nc(-c3ccc(Cl)c(Cl)c3)c(SC(C)C)s2)c(C(=O)N2CCOCC2)c1-c1cc(C(F)(F)F)cc(C(F)(F)F)c1 [Compound 139, (4-(3,5-bis(trifluoromethyl)phenyl)-1-(4-(3,4-dichlorophenyl)-5-(isopropylthio)thiazol-2-yl)-3-methyl-1H-pyrazol-5-yl)(morpholino)methanone] | 10 to 25 µM
20 | Cc1nn(-c2nc(-c3ccc(Cl)c(Cl)c3)c(SC(C)C)s2)c(C(=O)N(C)C)c1-c1cc(C(F)(F)F)cc(C(F)(F)F)c1 [Compound 140, 4-(3,5-bis(trifluoromethyl)phenyl)-1-(4-(3,4-dichlorophenyl)-5-(isopropylthio)thiazol-2-yl)-N,N,3-trimethyl-1H-pyrazole-5-carboxamide] | > 40 µM
21 | Cc1nn(-c2nc(-c3ccc(Cl)c(Cl)c3)c(SC(C)C)s2)c(C(=O)N2CCC(CO)CC2)c1-c1cc(C(F)(F)F)cc(C(F)(F)F)c1 [Compound 141, (4-(3,5-bis(trifluoromethyl)phenyl)-1-(4-(3,4-dichlorophenyl)-5-(isopropylthio)thiazol-2-yl)-3-methyl-1H-pyrazol-5-yl)(4-(hydroxymethyl)piperidin-1-yl)methanone] | > 40 µM
22 | Cc1nn(-c2nc(-c3ccc(Cl)c(Cl)c3)c(CC(C)C)s2)c(C(=O)O)c1-c1cnn(C)c1 [Compound 142, 1-(4-(3,4-dichlorophenyl)-5-isobutylthiazol-2-yl)-1′,3-dimethyl-1H,1′H-[4,4′-bipyrazole]-5-carboxylic Acid] | 1 to 5 µM
23 | Cc1cc(C)cc(-c2c(C)nn(-c3nc(-c4ccc(Cl)c(Cl)c4)c(SC(C)C)s3)c2C(=O)O)c1 [Compound 143, 1-(4-(3,4-dichlorophenyl)-5-(isopropylthio)thiazol-2-yl)-4-(3,5-dimethylphenyl)-3-methyl-1H-pyrazole-5-carboxylic Acid] | 1 to 5 µM
24 | Cc1nn(-c2nc(-c3ccc(Cl)c(Cl)c3)c(SC(C)C)s2)c(C(=O)O)c1-c1cc(Cl)cc(Cl)c1 [Compound 144, 4-(3,5-dichlorophenyl)-1-(4-(3,4-dichlorophenyl)-5-(isopropylthio)thiazol-2-yl)-3-methyl-1H-pyrazole-5-carboxylic Acid] | < 1 µM
25 | COc1cc(Cl)cc(-c2c(C)nn(-c3nc(-c4ccc(Cl)c(Cl)c4)c(SC(C)C)s3)c2C(=O)O)c1 [Compound 145, 4-(3-chloro-5-methoxyphenyl)-1-(4-(3,4-dichlorophenyl)-5-(isopropylthio)thiazol-2-yl)-3-methyl-1H-pyrazole-5-carboxylic Acid] | 1 to 5 µM
26 | COc1cc(-c2c(C)nn(-c3nc(-c4ccc(Cl)c(Cl)c4)c(SC(C)C)s3)c2C(=O)O)cc(C(F)(F)F)c1 [Compound 146, 1-(4-(3,4-dichlorophenyl)-5-(isopropylthio)thiazol-2-yl)-4-(3-methoxy-5-(trifluoromethyl)phenyl)-3-methyl-1H-pyrazole-5-carboxylic Acid] | 1 to 5 µM
27 | Cc1cc(Cl)cc(-c2c(C)nn(-c3nc(-c4ccc(Cl)c(Cl)c4)c(SC(C)C)s3)c2C(=O)O)c1 [Compound 147, 4-(3-chloro-5-methylphenyl)-1-(4-(3,4-dichlorophenyl)-5-(isopropylthio)thiazol-2-yl)-3-methyl-1H-pyrazole-5-carboxylic Acid] | < 1 µM
28 | Cc1nn(-c2nc(-c3ccc(Cl)c(Cl)c3)c(SC(C)C)s2)c(C(=O)NS(C)(=O)=O)c1-c1cc(C(F)(F)F)cc(C(F)(F)F)c1 [Compound 148, 4-(3,5-bis(trifluoromethyl)phenyl)-1-(4-(3,4-dichlorophenyl)-5-(isopropylthio)thiazol-2-yl)-3-methyl-N-(methylsulfonyl)-1H-pyrazole-5-carboxamide] | > 40 µM
